Source: US9334264B2, “NAMPT inhibitors” (AbbVie Inc., priority 2012, dated 2016)
pIC50: −log10 of the molar value.

Experiments:
[1] = biological target: NAMPT (human, recombinant, C-terminally His-tagged) (Homo sapiens, UniProt P43490); experiment: Time-Resolved Fluorescence Resonance Energy Transfer (TR-FRET) Binding Assay of NAMPT; settings: absence of substrates; 6.8 nM NAMPT, 200 nM probe, equilibrated 3 hours
Summary of the method: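 Displacement of 200 nM Oregon Green-labelled nicotinamide-competitive probe from 6.8 nM His-tagged NAMPT, detected with 1 nM Tb-anti-His; HEPES pH 7.5, 2% DMSO, 3 h room temperature. Em520/Em495 ratios normalized and fit four-parameter logistic for IC50.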

NAMPT = NAMPT (Homo sapiens, UniProt P43490); experiment: Time-Resolved Fluorescence Resonance Energy Transfer (TR-FRET) Binding Assay of NAMPT with PRPP; settings: 200 μM PRPP and 2.5 mM ATP; 2 nM NAMPT, 2 nM probe, equilibrated 16 hours
NAMPT, sequence (P43490 whole entry): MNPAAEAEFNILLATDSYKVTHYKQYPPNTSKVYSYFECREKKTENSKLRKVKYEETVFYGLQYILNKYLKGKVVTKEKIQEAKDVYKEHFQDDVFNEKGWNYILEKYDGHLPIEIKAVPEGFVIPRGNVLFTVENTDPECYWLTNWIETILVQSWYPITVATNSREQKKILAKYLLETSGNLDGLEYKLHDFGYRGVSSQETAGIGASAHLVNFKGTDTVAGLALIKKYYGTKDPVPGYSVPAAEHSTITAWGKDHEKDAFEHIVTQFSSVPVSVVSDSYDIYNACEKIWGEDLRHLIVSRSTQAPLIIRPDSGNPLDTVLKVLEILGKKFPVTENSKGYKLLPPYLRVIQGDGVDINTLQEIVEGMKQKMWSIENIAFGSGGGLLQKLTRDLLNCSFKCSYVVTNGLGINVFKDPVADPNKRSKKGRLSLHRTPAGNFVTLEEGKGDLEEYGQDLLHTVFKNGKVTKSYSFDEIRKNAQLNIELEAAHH
Summary of the method: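 Binding was measured by TR-FRET with 2 nM NAMPT, 2 nM probe and 1 nM Tb-anti-His antibody in the presence of 200 μM PRPP and 2.5 mM ATP, with 2% DMSO. Equilibration lasted 16 h before reading, allowing possible enzymatic modification of compounds.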

NAMPT (human, recombinant, C-terminally His-tagged), sequence (P43490 whole entry): as above

SMILES	pIC50 [1]	pIC50 (NAMPT)
N#Cc1ccc(CN(C(=O)NC2CC(C(=O)O)C2)c2ncc(C(=O)NCCCn3ccnc3)s2)cc1 (stereo not shown) [Example 164, 3-{[(4-cyanobenzyl)(5-{[3-(1H-imidazol-1-yl)propyl]carbamoyl}-1,3-thiazol-2-yl)carbamoyl]amino}cyclobutanecarboxylic acid]	< 5.00	6.23
CC(C)CCN(C(=O)CC1CCCO1)c1ncc(C(=O)NCCCn2ccnc2)s1 (stereo not shown) [Example 173, N-[3-(1H-imidazol-1-yl)propyl]-2-[(3-methylbutyl)(tetrahydrofuran-2-ylacetyl)amino]-1,3-thiazole-5-carboxamide]	6.15	8.63
COCCC(=O)N(CCN1CCOC1=O)c1ncc(C(=O)NCCCn2ccnc2)s1 [Example 198, N-[3-(1H-imidazol-1-yl)propyl]-2-{(3-methoxypropanoyl)[2-(2-oxo-1,3-oxazolidin-3-yl)ethyl]amino}-1,3-thiazole-5-carboxamide]	5.58	9.20
CC(C)OCCNC(=O)N(CCc1ccc(Cl)cn1)c1ncc(C(=O)NCCCn2ccnc2)s1 [Example 210, 2-([2-(5-chloropyridin-2-yl)ethyl]{[2-(propan-2-yloxy)ethyl]carbamoyl}amino)-N-[3-(1H-imidazol-1-yl)propyl]-1,3-thiazole-5-carboxamide]	5.56	9.72
COCCC(=O)N(Cc1cnn(C)c1)c1ncc(C(=O)NCCCn2ccnc2)s1 [Example 111, N-[3-(1H-imidazol-1-yl)propyl]-2-{(3-methoxypropanoyl)[(1-methyl-1H-pyrazol-4-yl)methyl]amino}-1,3-thiazole-5-carboxamide]	< 5.00	8.23
COCCN(C(=O)Cc1ccccn1)c1ncc(C(=O)NCCCn2ccnc2)s1 [Example 213, N-[3-(1H-imidazol-1-yl)propyl]-2-[(2-methoxyethyl)(pyridin-2-ylacetyl)amino]-1,3-thiazole-5-carboxamide]	5.01	9.39
COCCN(C(=O)Cc1ccc2ccccc2c1)c1ncc(C(=O)NCCCn2ccnc2)s1 [Example 185, N-[3-(1H-imidazol-1-yl)propyl]-2-[(2-methoxyethyl)(naphthalen-2-ylacetyl)amino]-1,3-thiazole-5-carboxamide]	6.20	9.32
N#Cc1ccc(CN(C(=O)NCCCN2CC(O)C2)c2ncc(C(=O)NCCCn3ccnc3)s2)cc1 [Example 149, 2-[(4-cyanobenzyl){[3-(3-hydroxyazetidin-1-yl)propyl]carbamoyl}amino]-N-[3-(1H-imidazol-1-yl)propyl]-1,3-thiazole-5-carboxamide]	< 5.00	7.03
COCCC(=O)N(CCC1OCCO1)c1ncc(C(=O)NCCCn2ccnc2)s1 [Example 180, 2-{[2-(1,3-dioxolan-2-yl)ethyl](3-methoxypropanoyl)amino}-N-[3-(1H-imidazol-1-yl)propyl]-1,3-thiazole-5-carboxamide]	5.11	9.48
O=C(NCCCn1ccnc1)c1cnc(N2C[C@H](CN3C(=O)c4ccccc4C3=O)OC2=O)s1 [Example 212, 2-{(5S)-5-[(1,3-dioxo-1,3-dihydro-2H-isoindol-2-yl)methyl]-2-oxo-1,3-oxazolidin-3-yl}-N-[3-(1H-imidazol-1-yl)propyl]-1,3-thiazole-5-carboxamide]	5.24	8.99
CNC(=O)CCN(C(=O)CCOC)c1ncc(C(=O)NCCCn2ccnc2)s1 [Example 200, N-[3-(1H-imidazol-1-yl)propyl]-2-{(3-methoxypropanoyl)[3-(methylamino)-3-oxopropyl]amino}-1,3-thiazole-5-carboxamide]	< 5.00	9.13
CC(C)CCN(Cc1cccc(Cl)c1)c1ncc(C(=O)NCCCn2ccnc2)s1 [Example 58, 2-[(3-chlorobenzyl)(3-methylbutyl)amino]-N-[3-(1H-imidazol-1-yl)propyl]-1,3-thiazole-5-carboxamide]	5.76	6.09
O=C(NCCCn1ccnc1)c1cnc(N(CCCN2CCCCC2)Cc2ccc(F)cc2)s1 [Example 8, 2-{(4-fluorobenzyl)[3-(piperidin-1-yl)propyl]amino}-N-[3-(1H-imidazol-1-yl)propyl]-1,3-thiazole-5-carboxamide]	5.50	6.54
CC(C)CCN(C(=O)[C@@H](C)Oc1ccccc1)c1ncc(C(=O)NCCCn2ccnc2)s1 [Example 133, N-[3-(1H-imidazol-1-yl)propyl]-2-{(3-methylbutyl)[(2R)-2-phenoxypropanoyl]amino}-1,3-thiazole-5-carboxamide]	7.23	9.28
O=C(NCCCn1ccnc1)c1cnc(N(Cc2ccc(Cl)cn2)C(=O)C2CCOCC2)s1 [Example 205, 2-{[(5-chloropyridin-2-yl)methyl](tetrahydro-2H-pyran-4-ylcarbonyl)amino}-N-[3-(1H-imidazol-1-yl)propyl]-1,3-thiazole-5-carboxamide]	6.13	9.75
CCN(CC)CCNC(=O)N(Cc1ccc(C#N)cc1)c1ncc(C(=O)NCCCn2ccnc2)s1 [Example 146, 2-[(4-cyanobenzyl){[2-(diethylamino)ethyl]carbamoyl}amino]-N-[3-(1H-imidazol-1-yl)propyl]-1,3-thiazole-5-carboxamide]	< 5.00	7.01
CCN(CC)CCN(C(=O)CCOC)c1ncc(C(=O)NCCCn2ccnc2)s1 [Example 191, 2-{[2-(diethylamino)ethyl](3-methoxypropanoyl)amino}-N-[3-(1H-imidazol-1-yl)propyl]-1,3-thiazole-5-carboxamide]	< 5.00	9.58
COCCC(=O)N(CC(=O)N1CCCC1)c1ncc(C(=O)NCCCn2ccnc2)s1 [Example 202, N-[3-(1H-imidazol-1-yl)propyl]-2-{(3-methoxypropanoyl)[2-oxo-2-(pyrrolidin-1-yl)ethyl]amino}-1,3-thiazole-5-carboxamide]	5.30	9.39

The remaining lines, values ahead:

pIC50 [1]	pIC50 (NAMPT)	SMILES
< 5.00	8.29	CC1CN(C(=O)N(Cc2ccc(F)cc2)c2ncc(C(=O)NCCCn3ccnc3)s2)CC(C)O1 (stereo not shown) [Example 70, N-(4-fluorobenzyl)-N-(5-{[3-(1H-imidazol-1-yl)propyl]carbamoyl}-1,3-thiazol-2-yl)-2,6-dimethylmorpholine-4-carboxamide]
< 5.00	9.06	O=C(NCCCn1ccnc1)c1cnc(N(Cc2ccc(F)cc2)C(=O)NC2CCCOC2)s1 (stereo not shown) [Example 92, 2-[(4-fluorobenzyl)(tetrahydro-2H-pyran-3-ylcarbamoyl)amino]-N-[3-(1H-imidazol-1-yl)propyl]-1,3-thiazole-5-carboxamide]
< 5.00	8.94	CC(CO)NC(=O)N(Cc1ccc(C#N)cc1)c1ncc(C(=O)NCCCn2ccnc2)s1 (stereo not shown) [Example 129, 2-{(4-cyanobenzyl)[(1-hydroxypropan-2-yl)carbamoyl]amino}-N-[3-(1H-imidazol-1-yl)propyl]-1,3-thiazole-5-carboxamide]
6.42	7.22	O=C(NCCCn1ccnc1)c1cnc(N(CC(=O)N2CCOCC2)Cc2ccc(F)cc2)s1 [Example 22, 2-{(4-fluorobenzyl)[2-(morpholin-4-yl)-2-oxoethyl]amino}-N-[3-(1H-imidazol-1-yl)propyl]-1,3-thiazole-5-carboxamide]
5.82	8.83	COCCC(=O)N(Cc1ccc(OC)nc1)c1ncc(C(=O)NCCCn2ccnc2)s1 [Example 98, N-[3-(1H-imidazol-1-yl)propyl]-2-{(3-methoxypropanoyl)[(6-methoxypyridin-3-yl)methyl]amino}-1,3-thiazole-5-carboxamide]
< 5.00	8.15	O=C(NCCCn1ccnc1)c1cnc(N(Cc2ccc(F)cc2)C(=O)N2CCCOCC2)s1 [Example 73, N-(4-fluorobenzyl)-N-(5-{[3-(1H-imidazol-1-yl)propyl]carbamoyl}-1,3-thiazol-2-yl)-1,4-oxazepane-4-carboxamide]
6.09	8.97	COCCC(=O)N(Cc1ccc(C#N)cc1)c1ncc(C(=O)NCCCn2ccnc2)s1 [Example 62, 2-[(4-cyanobenzyl)(3-methoxypropanoyl)amino]-N-[3-(1H-imidazol-1-yl)propyl]-1,3-thiazole-5-carboxamide]
5.68	8.25	Cc1cn(CCCNC(=O)c2cnc(N(Cc3ccc(F)cc3)C(=O)CC(C)C)s2)cn1 [Example 54, 2-[(4-fluorobenzyl)(3-methylbutanoyl)amino]-N-[3-(4-methyl-1H-imidazol-1-yl)propyl]-1,3-thiazole-5-carboxamide]
< 5.00	8.40	CC1(C)CN(C(=O)N(Cc2ccc(F)cc2)c2ncc(C(=O)NCCCn3ccnc3)s2)CCO1 [Example 72, N-(4-fluorobenzyl)-N-(5-{[3-(1H-imidazol-1-yl)propyl]carbamoyl}-1,3-thiazol-2-yl)-2,2-dimethylmorpholine-4-carboxamide]
< 5.00	8.11	O=C(NCCCn1ccnc1)c1cnc(N(Cc2ccc(F)cc2)C(=O)C[n+]2ccccc2)s1 [Example 44, 1-{2-[(4-fluorobenzyl)(5-{[3-(1H-imidazol-1-yl)propyl]carbamoyl}-1,3-thiazol-2-yl)amino]-2-oxoethyl}pyridinium]
6.35	8.88	COCCC(=O)N(CCc1cccc(F)c1)c1ncc(C(=O)NCCCn2ccnc2)s1 [Example 104, 2-{[2-(3-fluorophenyl)ethyl](3-methoxypropanoyl)amino}-N-[3-(1H-imidazol-1-yl)propyl]-1,3-thiazole-5-carboxamide acetate (1:1)]
